According to article PMC9841532, “Exploring the Effect of Halogenation in a Series of Potent and Selective A2B Adenosine Receptor Antagonists” (Journal of Medicinal Chemistry, 2022):
Read-outs that look alike come from different tables or passages of the source.

Legend:
hA1AR [1] = target: T1, hA1AR (Homo sapiens, UniProt P30542); assay: Radioligand binding competition, [3H]DPCPX, membranes from CHO-A1 cells; conditions: 1 μM, [3H]DPCPX, human CHO cells, n = 2
T1 sequence (P30542 1-326): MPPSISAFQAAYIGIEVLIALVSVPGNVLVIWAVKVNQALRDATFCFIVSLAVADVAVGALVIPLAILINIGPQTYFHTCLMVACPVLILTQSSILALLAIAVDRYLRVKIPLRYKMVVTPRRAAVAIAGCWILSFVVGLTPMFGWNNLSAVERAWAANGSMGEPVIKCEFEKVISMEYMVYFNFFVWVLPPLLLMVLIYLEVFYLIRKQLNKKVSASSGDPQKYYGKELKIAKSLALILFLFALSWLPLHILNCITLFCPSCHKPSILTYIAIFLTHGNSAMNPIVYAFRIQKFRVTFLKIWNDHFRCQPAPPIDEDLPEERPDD
Outline: (§1)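 Racemates, plus selected enantiomers after chiral resolution, were tested at 25 °C, with a 60 min incubation for one subtype and 30 min for others. Non-specific binding was defined with 10 μM or 100 μM R-PIA. Bound radioactivity was counted after washing and filtration.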

hA2AAR [2] = target: T2, hA2AAR (Homo sapiens, UniProt P29274); assay: Radioligand binding competition, [3H]ZM241385, membranes from HeLa-A2A cells; conditions: 1 μM, [3H]ZM241385, human HeLa cells, n = 2
T2 construct: expressed in transfected cells; host or cells: HeLa (HeLa-A2A) cell membranes
Outline: as §1

hA2BAR = target: T3, hA2BAR (Homo sapiens, UniProt P29275); assay: Radioligand binding competition, [3H]DPCPX, membranes from HEK-293-A2B cells; parameters: Exp. dG: unit not given here; conditions: for Ki: read-out: Ki hA2B; for Exp. dG: experimental binding free energy, Supplementary Table S3, unit not given (errors in kcal/mol)
T3 construct: host or cells: HEK-293 (HEK-293-A2B) cell membranes
T3 sequence (P29275 1-332): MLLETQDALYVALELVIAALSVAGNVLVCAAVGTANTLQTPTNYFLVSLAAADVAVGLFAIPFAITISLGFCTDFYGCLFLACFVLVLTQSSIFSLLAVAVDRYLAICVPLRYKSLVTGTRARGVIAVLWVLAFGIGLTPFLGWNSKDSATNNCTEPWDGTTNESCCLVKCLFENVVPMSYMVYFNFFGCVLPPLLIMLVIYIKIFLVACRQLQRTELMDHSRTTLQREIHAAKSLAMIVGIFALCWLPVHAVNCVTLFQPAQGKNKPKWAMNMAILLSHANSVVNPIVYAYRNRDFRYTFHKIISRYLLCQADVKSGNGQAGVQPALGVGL
Outline: as §1

hA3AR [3] = target: T4, hA3AR (Homo sapiens, UniProt P0DMS8); assay: Radioligand binding competition, [3H]NECA, membranes from HeLa-A3 cells; conditions: 1 μM, [3H]NECA, human HeLa cells, n = 2
T4 construct: expressed in transfected cells; host or cells: HeLa (HeLa-A3) cell membranes
T4 sequence (P0DMS8 1-318): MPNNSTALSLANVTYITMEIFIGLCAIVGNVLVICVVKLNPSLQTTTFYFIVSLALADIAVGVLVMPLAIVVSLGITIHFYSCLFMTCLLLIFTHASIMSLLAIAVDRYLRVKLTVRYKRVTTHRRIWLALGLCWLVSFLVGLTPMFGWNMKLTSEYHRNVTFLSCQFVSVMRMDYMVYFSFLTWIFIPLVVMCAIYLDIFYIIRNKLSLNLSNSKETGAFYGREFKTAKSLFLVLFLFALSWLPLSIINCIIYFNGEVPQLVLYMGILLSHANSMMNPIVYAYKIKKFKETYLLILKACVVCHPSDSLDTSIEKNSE
Outline: as §1

A2BAR [4] = target: T5, A2BAR (Homo sapiens, UniProt P29275); assay: cAMP accumulation assay in HEK-293 cells permanently expressing A2BAR-SNAP; assay type: cell-based; conditions: read-out: KB (hA2B)
T5 construct: expressed in transfected cells; host or cells: HEK-293 T cells permanently expressing pRK5-A2BAR^SNAP
T5 sequence (P29275 1-332): T3 sequence (P29275 1-332)
Procedure: To assess their ability to block A2BAR agonist intrinsic activity, the effect on A2BAR-mediated cAMP accumulation and cellular impedance was evaluated. To this end, we used HEK-293 cells permanently expressing the A2BAR^SNAP construct, which can be visualized upon staining the cells with a SNAP-fluorescent substrate.
Scale bar: […]. […] Data are expressed as mean ± SEM (n = 4).
cAMP accumulation was measured using the LANCE Ultra cAMP kit (PerkinElmer, Waltham, Massachusetts, USA) as previously described.[55] […] The 384-well plate was incubated 1 h at 22 °C in the dark and was then read on a CLARIOstar Microplate Reader (BMG Labtech, Durham, North Carolina, USA). […] Data were fitted by non-linear regression using GraphPad Prism 9 (San Diego, California, USA).

A2BAR [5] = target: T5, A2BAR; assay: Cellular impedance label-free assay (xCELLigence) in A2BAR-SNAP cells; assay type: cell-based; conditions: compound 1 μM, NECA 1 μM, 45 min, n = 4
Source text: To further evaluate the ability of 16b, 16j, 16r, and 16s to preclude A2BAR function in living cells, we took advantage of the cellular impedance label-free method, a widely accepted morphological and functional biosensor of cell status.[39] Accordingly, whole-cell NECA-mediated impedance responses of A2BAR^SNAP cells were monitored in real time in the absence or presence of 16b, 16j, 16r, and 16s.
Figure 4 Blockade of A2BAR-mediated whole-cell label-free responses. (A) Representative example of the impedance signal obtained over the time upon incubation with A2BAR ligands. […] (B) The area under the curve (AUC) derived from the normalized cell index (NCI) shown in (A) was calculated for each condition. Data are expressed as mean ± SEM (n = 4). ***P < 0.001 and **P < 0.01, one-way ANOVA with a Dunnett’s multiple-comparison test when compared to vehicle (Veh).
The xCELLigence RTCA system (Roche) was employed to assess the impact of blocking A2BAR-mediated effects in cellular impedance upon receptor activation, as previously described.[57]−[60] To this end, A2BAR^SNAP cells were growth in 16-well E-plates (Roche), using DMEM supplemented with 1 mM sodium pyruvate, 2 mM L-glutamine, 100 U/mL streptomycin, […] penicillin, and 1.5% (v/v) fetal bovine serum in the presence of 0.5 U/mL of ADA. Of note, wells were previously coated with 50 μL fibronectin (10 μg/mL; Sigma-Aldrich) and the background index for each well was determined with supplemented DMEM (90 μL) in the absence of cells. Subsequently, A2BAR^SNAP cells (90 μL) were plated at a cell density of 10,000 cells/well and grown for 18 h in the RTCA SP device station (Roche) at 37 °C in an atmosphere of 5% CO2. Then, before ligand addition, cell index values were normalized to the same time point using the RTCA software, providing the normalized cell index (NCI). After ligand stimulation, NCI was recorded every 15 s for a total time of at least 45 min. The area under the curve (AUC) for every condition was calculated using GraphPad Prism 9.

hA1AR [6] = target: T1, hA1AR; conditions: prototype series, [3H]DPCPX, human CHO cells ref 30, 31; cited from earlier work
hA2AAR [7] = target: T2, hA2AAR; conditions: prototype series, human HeLa cells ref 30, 31; cited from earlier work
hA3AR [8] = target: T4, hA3AR; conditions: prototype series, [3H]NECA, human HeLa cells ref 30, 31; cited from earlier work
A2B = conditions: Figure 1, representative A2B antagonists ref 28-32; read-out: Ki; cited from earlier work
[9] = displacement of specific [3H]DPCPX binding in human HEK-293 cells, n = 3

T2 sequence (P29274 whole entry): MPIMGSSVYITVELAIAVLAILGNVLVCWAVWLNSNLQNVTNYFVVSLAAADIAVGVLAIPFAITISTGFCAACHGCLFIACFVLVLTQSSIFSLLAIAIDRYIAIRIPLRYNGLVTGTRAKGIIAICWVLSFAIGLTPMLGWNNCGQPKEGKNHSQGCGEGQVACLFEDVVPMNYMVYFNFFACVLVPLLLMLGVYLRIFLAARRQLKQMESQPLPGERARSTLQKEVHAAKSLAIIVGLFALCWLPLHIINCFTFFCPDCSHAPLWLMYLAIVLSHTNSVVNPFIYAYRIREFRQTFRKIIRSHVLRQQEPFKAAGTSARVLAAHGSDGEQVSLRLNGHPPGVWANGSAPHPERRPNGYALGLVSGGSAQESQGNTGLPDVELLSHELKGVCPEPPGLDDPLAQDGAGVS

## CCOC(=O)C1=C(C)Nc2nc3cc(Br)ccc3n2C1c1ccoc1 (stereo not shown) [16s]
hA1AR [1]
  % at 1 μM hA1 (percentage displacement of specific binding): 1%
hA2AAR [2]
  % at 1 μM hA2A (percentage displacement of specific binding): 37%
hA2BAR; [9]
  Ki: 3.32 ± 0.4 nM
hA2BAR
  Ki: < 10 nM
hA3AR [3]
  % at 1 μM hA3 (percentage displacement of specific binding): 25%
A2BAR [4]
  Kb: 1.5 ± 0.5 nM
A2BAR [5]
  Blockade of NECA-induced changes in cellular impedance (AUC of normalized cell index): significantly blocked

## CC1=C(C(=O)OC(C)C)C(c2ccco2)n2c(nc3ccccc32)N1 (stereo not shown) [II, reference compound]
hA1AR [1]; listed as (±)-ISAM-140
  % at 1 μM hA1 (percentage displacement of specific binding): 20%
hA1AR [1]; listed as ISAM-140
  % at 1 μM hA1 (percentage displacement of specific binding): 14%
hA2AAR [2]; listed as (±)-ISAM-140
  % at 1 μM hA2A (percentage displacement of specific binding): 28%
hA2AAR [2]; listed as ISAM-140
  % at 1 μM hA2A (percentage displacement of specific binding): 7%
hA2BAR; 1 μM, [3H]DPCPX, human HEK-293 cells, n = 2
  % at 1 μM hA2B (percentage displacement of specific binding): 17%
hA2BAR; [9]
  Ki: 3.49 ± 0.2 nM
hA2BAR
  Exp. dG: -11.53
hA3AR [3]; listed as (±)-ISAM-140
  % at 1 μM hA3 (percentage displacement of specific binding): 2%
hA3AR [3]; listed as ISAM-140
  % at 1 μM hA3 (percentage displacement of specific binding): 3%
hA1AR [6]
  % at 1 μM hA1 (percentage displacement of specific binding): 20%
hA2AAR [7]
  % at 1 μM hA2A (percentage displacement of specific binding): 28%
hA3AR [8]
  % at 1 μM hA3 (percentage displacement of specific binding): 2%
A2B
  Ki: 3.49 nM

## CCOC(=O)C1=C(C)Nc2nc3ccccc3n2C1c1ccco1 (stereo not shown) [I]
hA2BAR
  Exp. dG: -10.8
hA1AR [6]
  % at 1 μM hA1 (percentage displacement of specific binding): 5%
hA2AAR [7]
  % at 1 μM hA2A (percentage displacement of specific binding): 14%
hA3AR [8]
  % at 1 μM hA3 (percentage displacement of specific binding): 1%
A2B
  Ki: 12 nM

## CC1=C(C(=O)OC(C)C)C(c2ccsc2)n2c(nc3ccccc32)N1 (stereo not shown) [VIII]
hA2BAR
  Exp. dG: -10.27
hA1AR [6]
  % at 1 μM hA1 (percentage displacement of specific binding): 11%
hA2AAR [7]
  % at 1 μM hA2A (percentage displacement of specific binding): 3%
hA3AR [8]
  % at 1 μM hA3 (percentage displacement of specific binding): 21%

## CCOC(=O)C1=C(C)Nc2nc3ccccc3n2C1c1ccsc1 (stereo not shown) [VII]
hA2BAR
  Exp. dG: -10.26
hA1AR [6]
  % at 1 μM hA1 (percentage displacement of specific binding): 3%
hA2AAR [7]
  % at 1 μM hA2A (percentage displacement of specific binding): 10%
hA3AR [8]
  % at 1 μM hA3 (percentage displacement of specific binding): 2%

## CC1=C(C(=O)OC(C)C)C(c2cccs2)n2c(nc3ccccc32)N1 (stereo not shown) [VI]
hA2BAR
  Exp. dG: -8.767
hA1AR [6]
  % at 1 μM hA1 (percentage displacement of specific binding): 1%
hA2AAR [7]
  % at 1 μM hA2A (percentage displacement of specific binding): 17%
hA3AR [8]
  % at 1 μM hA3 (percentage displacement of specific binding): 3%
